From patent US7879866B2, “Inhibition of the activity of the capsaicin receptor in the treatment of obesity or obesity-related diseases and disorders” (Dorte Xenia Gram, priority 2004, dated 2011)

How the values were obtained:
male Zucker obese rats = experiment: Oral glucose tolerance test (OGTT) and glucose stimulated insulin secretion after oral BCTC; format: in vivo, rat; conditions: 6 month old male Zucker obese rats; BCTC 15 mg/kg p.o. at -30 min; glucose 2 g/kg po at time 0; vs vehicle
Text: Laboratory animals: Male (n=19) Zucker obese rats were purchased from Charles River Laboratories, U.S. The rats were transported to Denmark at the age of 6 weeks and were kept under ambient controlled conditions on a normal day light cycle (lights on at 6 am, lights off at 6 pm) at the Måløv Animal Unit at Novo Nordisk A/S, Denmark from then and until the age of 9 month of age. The rats were kept in groups of 3 rats per cage until the end of the experiment in standard cages (Eurostandard Type IV, Techniplast, Scanbur, Denmark) and were given free access to acidified (0.4% citric acid) tap water and standard chow (Altromin, Brogaarden Aps, Denmark). The cages were supplied with wooden wool (Brogaarden, Denmark) as nesting material and the bedding material was aspen chips (Brogaarden, Denmark), changed twice per week as was the bottles of acidified water.
At 6 month of age, an OGTT was performed shortly after administering a capsaicin receptor antagonist (BCTC) orally. […] Fasting blood glucose and plasma insulin was determined as described below. […] The rats were left in the cage until time 0 where blood glucose was assessed followed by the OGTT. […] Blood glucose and plasma insulin was determined at time 30, 60 and 120 min after glucose. […] Following the experiment, glucose was determined using the glucose oxidase method (EBIO, Eppendorf, Germany). […]

F4/80 = experiment: Relative gene expression of F4/80 in mesenteric adipose tissue (quantitative RT-PCR); format: in vivo, rat; conditions: 9 month old Zucker obese rats; 1 hour after BCTC 15 mg/kg po; vehicle as calibrator, 36B4 internal standard
Experimental: (§1) At 9 months of age, the same rats were tested re. mesenteric inflammatory mediators. The rats were fasted for 18 hours where after they were given BCTC at 15 mg/kg (n=10) or vehicle (n=9) orally by gavage. One hour after treatment, the rats were anaesthetized in isoflurane and decapitated. The mesenteric adipose tissue was quickly removed and transferred to 10× volume pre-chilled RNAlater (Sigma-Aldrich, USA) and stored at −20° C. To prevent area to area effect on gene expressions patterns, 0, 5-1 g tissue was homogenized in TRIzol Reagent (1 ml/100 mg tissue) (TRIzol; Invitrogen Corp.). […] PCR amplification mixtures (25 μl) contained 12.5 μl of 2× Platinum Quantitative PCR SuperMix-UDG (Invitrogen Corp.), 0.625 μl of reverse primer (20 μM), 0.625 μl forward primers (20 μM), 0.625 μl Probe (10 μM) (ProbeLibrary Exiqon A/S, Denmark) and 5 μl diluted cDNA template. Real-time quantitative PCR was carried out using MX3000P PCR machine (Stratagene, USA) with the following cycling parameters: polymerase activation for 10 minutes at 95° C. and amplification for 40 cycles of 30 seconds at 95° C. and 60 seconds at 60° C. […]
(§2) Relative gene expression of iNOS and F4/80 were determined by quantitative RT-PCR comparative Ct method (Applied Biosystems. User Bulletin #2. ABI PRISM 7700 sequence detection system, 1997) using vehicle as calibrator. […]

iNOS = experiment: Relative gene expression of iNOS in mesenteric adipose tissue (quantitative RT-PCR); format: in vivo, rat; conditions: 9 month old Zucker obese rats; 1 hour after BCTC 15 mg/kg po; vehicle as calibrator, 36B4 internal standard
Experimental: as §1, §2

capsaicin receptor = target: T1, capsaicin receptor (Rattus norvegicus, UniProt O35433); conditions: literature refs 22, 23; cited from earlier work
T1 construct: host or cells: whole animal (in vivo pain models)
T1 sequence (O35433 whole entry): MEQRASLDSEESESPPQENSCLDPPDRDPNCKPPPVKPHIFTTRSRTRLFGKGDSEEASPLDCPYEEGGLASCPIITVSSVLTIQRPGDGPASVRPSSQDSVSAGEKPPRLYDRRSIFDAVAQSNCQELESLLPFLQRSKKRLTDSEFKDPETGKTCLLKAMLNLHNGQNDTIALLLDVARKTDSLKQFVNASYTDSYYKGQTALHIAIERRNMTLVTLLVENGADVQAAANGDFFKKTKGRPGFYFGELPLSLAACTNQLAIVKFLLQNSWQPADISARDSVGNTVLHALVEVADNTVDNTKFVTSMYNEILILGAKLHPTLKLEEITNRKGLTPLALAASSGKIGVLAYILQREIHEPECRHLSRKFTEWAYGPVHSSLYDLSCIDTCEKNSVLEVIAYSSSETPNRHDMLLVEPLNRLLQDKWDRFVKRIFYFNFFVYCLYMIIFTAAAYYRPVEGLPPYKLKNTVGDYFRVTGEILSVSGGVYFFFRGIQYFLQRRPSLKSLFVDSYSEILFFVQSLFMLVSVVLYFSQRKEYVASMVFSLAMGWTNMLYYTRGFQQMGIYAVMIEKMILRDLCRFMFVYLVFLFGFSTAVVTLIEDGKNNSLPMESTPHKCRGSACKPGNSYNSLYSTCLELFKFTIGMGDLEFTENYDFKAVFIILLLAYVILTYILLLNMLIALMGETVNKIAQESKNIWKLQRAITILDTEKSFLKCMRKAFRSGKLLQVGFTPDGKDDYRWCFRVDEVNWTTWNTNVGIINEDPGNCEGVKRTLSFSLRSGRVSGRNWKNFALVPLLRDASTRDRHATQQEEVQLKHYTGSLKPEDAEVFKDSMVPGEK

CC(C)(C)c1ccc(NC(=O)N2CCN(c3ncccc3Cl)CC2)cc1 [BCTC, N-(4-tertiarybutylphenyl)-4-(3-chloropyridin-2-yl)tetrahydropyrazine-1(2H)-carbox-amide]
blood glucose after oral glucose tolerance test (male Zucker obese rats): diminished rise in blood glucose | plasma insulin after oral glucose load (glucose stimulated insulin response) (male Zucker obese rats): considerable higher levels of insulin in plasma | gene expression of F4/80 in mesenteric adipose tissue (F4/80): significantly lower level | gene expression of iNOS in mesenteric adipose tissue (iNOS): significantly lower level | inhibiting capsaicin-mediated hyperalgesia, inflammatory hyperalgesia or allodynia, and hyperalgesia after nerve injury (capsaicin receptor): shown effective
